# US11214803B2, “Modulators of YAP1 expression” (Ionis Pharmaceuticals, Inc., priority 2019, dated 2022)
# Marks after values point to notes of the source that are not given here. Strand notation (5' to 3'): a small letter for the sugar, then the base; units joined by * are phosphorothioate-linked, units joined directly phosphodiester-linked; [ ] holds rarer units or linkages, { } end groups; capitals alone tell only the bases. k = constrained ethyl (cEt); [5mC] = 5-methylcytosine; d = 2'-deoxy (DNA)
# Test system: Yap1 mRNA
# Experiment: Antisense inhibition of human Yap1 in A-431 cells by cEt gapmers, single dose (Example 2, RTS4814)
# Type: cell-based
# Details: A-431 cells, 5,000 cells per well, free uptake, 2,000 nM modified oligonucleotide, approx. 48 hours, RTS4814, normalized to RIBOGREEN; Table 4; asterisk (*) = targets amplicon region of primer probe set
# Method in brief: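 Yap1 mRNA levels, by real-time RT-PCR (RTS4814) and corrected for total RNA via RIBOGREEN, are given as percent of untreated cells. Gapmers (16-mer, cEt wings, phosphorothioate, 5-methylC) were delivered without transfection at 2,000 nM to A-431 cells for about 48 hours.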
row,Substance,YAP1 (% UTC)
1,716349 (kA*k[5mC]*kT*dT*dT*dT*dT*d[5mC]*d[5mC]*d[5mC]*dT*d[5mC]*d[5mC]*kA*kA*k[5mC]; antisense) [Compound 716349],78

# Same assay, conditions: Table 6; A-431 cells, 5,000 cells per well, free uptake, 2,000 nM modified oligonucleotide, approx. 48 hours; RTS4814; normalized to RIBOGREEN; Yap1 mRNA relative to untreated control cells
row,Substance,YAP1 (% UTC)
1,716447 (k[5mC]*k[5mC]*kA*dA*d[5mC]*d[5mC]*dA*dA*d[5mC]*d[5mC]*d[5mC]*d[5mC]*d[5mC]*k[5mC]*k[5mC]*kA; antisense) [Compound 716447],97
2,716474 (kT*kA*kA*dA*dT*dG*dA*dA*dG*dG*dT*dA*dA*kA*k[5mC]*k[5mC]; antisense) [Compound 716474],120
3,716432 (kT*k[5mC]*kT*dG*dA*dG*dT*dA*dT*dT*dT*dA*dG*kT*kT*kA; antisense) [Compound 716432],30
4,716459 (k[5mC]*kG*k[5mC]*dT*dA*d[5mC]*d[5mC]*dA*dT*dT*dT*dT*dA*kA*kA*kA; antisense) [Compound 716459],121
5,716480 (kG*k[5mC]*kA*dA*dG*dT*d[5mC]*dT*dT*dG*dT*dA*dA*kG*kT*kA; antisense) [Compound 716480],18

# Same assay, conditions: Table 7 (gapmers targeting SEQ ID NO: 3 and 4); A-431 cells, free uptake, 2,000 nM, approximately 48 hours, RTS4814
row,Substance,YAP1 (% UTC)
1,716562 (kG*k[5mC]*k[5mC]*dT*dG*d[5mC]*d[5mC]*dG*dA*dA*dG*d[5mC]*dA*kG*kT*kT) [Compound 716562],103

# Same assay, conditions: Table 18; A-431 cells, 5,000 cells per well, free uptake, 2,000 nM modified oligonucleotide, approx. 48 hours; RTS4814; normalized to RIBOGREEN; Yap1 mRNA as percent of untreated control
row,Substance,YAP1 (% UTC)
1,1075396 (kA*kT*kT*dA*dT*d[5mC]*dG*d[5mC]*dA*d[5mC]*dA*dT*dA*k[5mC]*kA*kT; antisense) [Compound 1075396],89
2,1074916 (antisense kA*kA*kG*dT*dT*dA*d[5mC]*dA*dT*d[5mC]*d[5mC]*d[5mC]*dG*kA*kG*kT) [Compound 1074916],75
3,1074148 (antisense kG*kT*kG*dG*dA*dG*dA*dA*dG*d[5mC]*dG*dG*d[5mC]*kG*kA*k[5mC]) [Compound 1074148],66
4,1076164 (kT*kG*kA*dT*dA*dT*dA*dA*dG*dT*dT*dA*d[5mC]*k[5mC]*kA*kA; antisense) [Compound 1076164],50
5,1074340 (antisense kT*k[5mC]*k[5mC]*d[5mC]*dG*dG*dG*dA*dG*dA*dA*dG*dA*k[5mC]*kA*k[5mC]) [Compound 1074340],120

# Same assay, conditions: Table 19; A-431 cells, 5,000 cells per well, free uptake, 2,000 nM modified oligonucleotide, approx. 48 hours; RTS4814; normalized to RIBOGREEN; Yap1 mRNA as percent of untreated control
row,Substance,YAP1 (% UTC)
1,1076485 (antisense kA*kA*kA*d[5mC]*dG*dA*dA*dA*d[5mC]*dG*dG*dG*dA*kA*kA*kT) [Compound 1076485],55

# Same assay, conditions: Table 20; Yap1 mRNA, percent of untreated control; 3-10-3 cEt gapmers targeting SEQ ID NO.: 1 and 2
row,Substance,YAP1 (% UTC)
1,1075494 (antisense kT*k[5mC]*kT*d[5mC]*dA*dA*d[5mC]*dA*dA*dT*dT*dT*dG*k[5mC]*kT*kA) [Compound 1075494],47
2,1076038 (kA*kG*kG*d[5mC]*dA*dA*dG*dA*dA*dT*dT*dG*dG*kG*kT*kA; antisense) [Compound 1076038],11
3,1076198 (k[5mC]*kT*kA*dT*dT*dA*dT*d[5mC]*dA*dA*dG*dG*dG*kA*kA*kT; antisense) [Compound 1076198],81
4,1076518 (antisense kG*kA*kT*dA*dA*dG*d[5mC]*dA*d[5mC]*d[5mC]*dA*d[5mC]*d[5mC]*kA*kT*kA) [Compound 1076518],25
5,1075206 (antisense kT*kA*kT*dT*dA*dA*dA*dT*dG*dA*dG*d[5mC]*dA*k[5mC]*k[5mC]*kA) [Compound 1075206],36
6,1074310 (antisense kT*k[5mC]*k[5mC]*dG*d[5mC]*dA*dT*dT*dG*d[5mC]*d[5mC]*dT*dG*kT*kG*kG) [Compound 1074310],100

# Same assay, conditions: Table 21; Yap1 mRNA, percent of untreated control; 3-10-3 cEt gapmers targeting SEQ ID NO.: 1 and 2
row,Substance,YAP1 (% UTC)
1,1074215 (antisense kG*k[5mC]*kT*d[5mC]*d[5mC]*dG*dG*d[5mC]*dG*dG*d[5mC]*dT*dT*kG*kA*kA) [Compound 1074215],77 % UTC
2,1075399 (antisense k[5mC]*kA*kT*dA*dT*dA*dT*dA*dT*dG*dG*d[5mC]*d[5mC]*k[5mC]*kT*kT) [Compound 1075399],15 % UTC
3,1074439 (k[5mC]*kT*kG*dT*dG*dA*d[5mC]*dA*dT*dG*dA*dA*dG*k[5mC]*kA*kT; antisense) [Compound 1074439],2* % UTC
4,1074951 (antisense k[5mC]*kA*kT*d[5mC]*dA*dG*dG*dT*dT*dA*dA*dG*dT*kG*kA*kT) [Compound 1074951],85 % UTC
5,1074759 (k[5mC]*kA*kA*d[5mC]*d[5mC]*dA*dA*dG*dA*dA*dG*d[5mC]*dA*kG*kT*kT; antisense) [Compound 1074759],43 % UTC

# Same assay, conditions: Table 22; Yap1 mRNA as percent of untreated control; 3-10-3 cEt gapmers; single dose
row,Substance,YAP1 (% UTC)
1,1076264 (kA*k[5mC]*k[5mC]*d[5mC]*dA*dA*dT*dA*dA*d[5mC]*d[5mC]*dA*dA*kG*kT*kG; antisense) [Compound 1076264],40

# Same assay, conditions: Table 23; Yap1 mRNA as percent of untreated control; 3-10-3 cEt gapmers; single dose
row,Substance,YAP1 (% UTC)
1,1074217 (antisense kG*kG*kA*dT*dT*dT*dG*dG*dG*d[5mC]*dT*d[5mC]*d[5mC]*kG*kG*k[5mC]) [Compound 1074217],74
2,1075273 (antisense kA*kA*kA*dT*dT*dA*dT*dG*dG*dT*d[5mC]*dA*dG*kG*k[5mC]*kT) [Compound 1075273],18
3,1075241 (antisense kG*kA*kT*dA*dA*dT*dT*dA*d[5mC]*dT*dA*dA*d[5mC]*kT*kG*kA) [Compound 1075241],31

# Same assay, conditions: Table 24; Yap1 mRNA as percent of untreated control; 3-10-3 cEt gapmers targeting SEQ ID NO.: 1, and 2
row,Substance,YAP1 (% UTC)
1,1076202 (kT*k[5mC]*kT*dA*dA*dA*dA*dA*dG*dA*d[5mC]*dA*dG*kG*kG*k[5mC]; antisense) [Compound 1076202],32
2,1075914 (kA*kT*kT*dT*dA*dG*dG*dA*dT*dG*d[5mC]*d[5mC]*dT*kT*kT*kA; antisense) [Compound 1075914],14

# Same assay, conditions: Table 25; Yap1 mRNA as percent of untreated control; 3-10-3 cEt gapmers targeting SEQ ID NO.: 1, and 2
row,Substance,YAP1 (% UTC)
1,1074347 (antisense kG*kT*kT*dA*dA*dG*dG*dA*dA*dA*dG*dG*dA*kT*k[5mC]*kT) [Compound 1074347],34
2,1074987 (antisense kG*k[5mC]*k[5mC]*dG*d[5mC]*dG*dG*d[5mC]*dT*d[5mC]*d[5mC]*d[5mC]*dG*kA*kG*k[5mC]) [Compound 1074987],94

# Same assay, conditions: Table 32; Yap1 mRNA, percent of untreated control; 3-10-3 cEt gapmers targeting SEQ ID NO.: 1, and 2
row,Substance,YAP1 (% UTC)
1,1075634 (antisense kA*kG*kA*d[5mC]*dT*dA*dT*dA*dT*dT*dG*dG*d[5mC]*kT*k[5mC]*k[5mC]) [compound 1075634],65
2,1074706 (antisense kT*kT*kA*dA*dT*dG*dG*d[5mC]*dA*dG*d[5mC]*dA*d[5mC]*kG*kG*kT) [compound 1074706],48
3,1075218 (k[5mC]*kT*kT*dA*dA*d[5mC]*dA*d[5mC]*dT*dG*dG*dT*dA*kA*kG*kA; antisense) [compound 1075218],97

# Same assay, conditions: Table 33; Yap1 mRNA, percent of untreated control; 3-10-3 cEt gapmers targeting SEQ ID NO.: 1, and 2
row,Substance,YAP1 (% UTC)
1,1075315 (antisense k[5mC]*kA*kT*dA*dA*d[5mC]*dT*dT*dG*dA*dT*dG*dA*k[5mC]*kT*k[5mC]) [compound 1075315],27
2,1075987 (kG*kA*kA*dG*dA*dA*dT*dA*dT*d[5mC]*dG*dA*dA*kA*kA*kG; antisense) [compound 1075987],13
3,1075667 (antisense k[5mC]*kA*kA*dA*dT*dT*dT*dA*dG*dT*dT*dG*dT*kG*k[5mC]*kA) [compound 1075667],109

# Same assay, conditions: Yap1 mRNA as percent of untreated control; A-431 cells; 3-10-3 cEt gapmers targeting SEQ ID NO.: 1, and 2; Table 30
row,Substance,YAP1 (% UTC)
1,1075536 (kT*kT*kA*dA*dT*dT*dA*d[5mC]*d[5mC]*d[5mC]*dA*dA*dG*kG*kA*k[5mC]; antisense) [compound 1075536],55
2,1074544 (k[5mC]*kT*k[5mC]*d[5mC]*d[5mC]*d[5mC]*dT*dA*dG*dG*d[5mC]*dA*d[5mC]*kT*kA*kT; antisense) [compound 1074544],34
3,1076016 (kT*kA*kA*dT*dA*dG*dG*dA*dT*dG*dG*dA*dT*kT*k[5mC]*kT; antisense) [compound 1076016],8
4,1076560 (kT*k[5mC]*k[5mC]*dA*dA*dA*dT*dA*dT*dG*dG*d[5mC]*dA*kT*kA*k[5mC]; antisense) [compound 1076560],10

# Same assay, conditions: Yap1 mRNA as percent of untreated control; A-431 cells; 3-10-3 cEt gapmers targeting SEQ ID NO.: 1, and 2; Table 31
row,Substance,YAP1 (% UTC)
1,1075441 (antisense kG*kA*kA*dT*dT*dA*dA*dA*dG*d[5mC]*dA*dG*dT*kG*k[5mC]*k[5mC]) [compound 1075441],24
2,1075889 (antisense kA*kT*kT*dA*dA*dA*dA*dG*dT*dA*dG*dG*d[5mC]*k[5mC]*k[5mC]*kT) [compound 1075889],71
3,1074321 (antisense kG*kG*kG*d[5mC]*dT*dA*dA*d[5mC]*dT*d[5mC]*d[5mC]*dT*dG*kA*k[5mC]*kA) [compound 1074321],73
